Data set [1] relates to absorption of cholesterol. Conditions: ingestion of 1 g; meal containing 500 mg of cholesterol; cited from earlier work.
A further data set relates to Male Sprague-Dawley rats. Briefly: Organ weights in rats after 14 days of dosing (Example 9). In kind it is in vivo. An excerpt:
The organ weights obtained from Bramson et al. are given in the right-hand column of the table for reference (Bramson, H. N., Journal of Pharmacology and Experimental Therapeutics, 1496-1502, (1997).)

The nature of data set [2]: Testosterone undecanoate (TU) solubility in various solubilizers.
The conditions of data set [3]: oral 200 mg twice daily, cited from earlier work.
Where [4] appears, read: male Sprague-Dawley rats, 80 mg/kg/day TU, without or with 1 mg/kg/day D.

The structures appear in SMILES notation. Marks after values point to notes of the source that are not given here. Where only a bound is given, the exact number is not on record here.

For the molecule `CC[C@H](CC[C@@H](C)[C@H]1CC[C@H]2[C@@H]3CC=C4C[C@@H](O)CC[C@]4(C)[C@H]3CC[C@]12C)C(C)C` [β-sitosterol], in data set [1], the “reduction of absorption of cholesterol” value is listed as 42%.
On to `CCCCCCCCCCC(=O)O[C@H]1CC[C@H]2[C@@H]3CCC4=CC(=O)CC[C@]4(C)[C@H]3CC[C@]12C` [TU, testosterone undecanoate], for which the “Body weight, Mean” value with Male Sprague-Dawley rats (setting [4]) came to 284 g. In addition, the “Seminal vesicles weight, Mean” value in the data set with Male Sprague-Dawley rats (setting [4]) was found to be 0.902 grams. Moreover, the “Testicles weight, Mean” value with Male Sprague-Dawley rats (setting [4]) is given as 3.374 grams. Besides, in the data set on Male Sprague-Dawley rats (setting [4]), the “Ventral prostate weight, Mean” value worked out at 0.22 grams. In addition, in the data set on Male Sprague-Dawley rats (rats, any organ measured), the “Difference in organ weight versus vehicle-only” value was “No significant differences in weight”. For the same molecule, the “TU Solubility” value in data set [2] (vehicle Acconon CO-7, at 37 C.) is recorded as 59 mg/g; in data set [2] (vehicle Canola oil, at 37 C.) it was 167 mg/g; in data set [2] (vehicle Capmul MCM, determined at 25° C.), >100* mg/g; in data set [2] (vehicle Capmul PG-8, determined at 25° C.) it was >100* mg/g; in data set [2] (vehicle Caprylic acid, at 37 C.), 595 mg/g; in data set [2] (vehicle Castor oil, at 37 C.), 218 mg/g. The “TU Solubility” value in data set [2] (vehicle Corn oil, at 37 C.) is 243 mg/g; in data set [2] (vehicle Cremophor RH40, determined at 25° C.) it was 88* mg/g; in data set [2] (vehicle Crodamol EO (ethyl oleate), at 37 C.), 221 mg/g; in data set [2] (vehicle Crodamol IPM (isopropyl myristate), at 37 C.) it was 295 mg/g; in data set [2] (vehicle Crodamol IPP (isopropyl palmitate), at 37 C.) it was 215 mg/g; in data set [2] (vehicle Ethyl linoleate, at 37 C.) it was 230 mg/g. The “TU Solubility” value in data set [2] (vehicle Glyceryl monooleate or GMO (Peceol (Gattefosse)), at 37 C.) was determined as 323 mg/g; in data set [2] (vehicle Glyceryl ricinoleate (Softigen 701), at 37 C.), 261 mg/g; in data set [2] (vehicle Glyceryl trioleate (Capmul GTO), at 37 C.) it was 154 mg/g; in data set [2] (vehicle Incromega E7010 (omega-3), at 37 C.) it was 247 mg/g; in data set [2] (vehicle Incromega TG7010 SR (omega-3 high purity), at 37 C.) it was 225 mg/g; in data set [2] (vehicle Labrafil M 2125 CS, at 37 C.), 257 mg/g. For the same molecule, the “TU Solubility” value in data set [2] (vehicle Labrasol, determined at 25° C.) is 43* mg/g; in data set [2] (vehicle Linoleic acid, at 37 C.) it was 391 mg/g; in data set [2] (vehicle Linolenic acid, at 37 C.), 162 mg/g; in data set [2] (vehicle Maisine 35-1, at 37 C.), 93 mg/g; in data set [2] (vehicle Miglyol 812, determined at 25° C.) it was >100* mg/g; in data set [2] (vehicle N-methyl pyrolidone, at 37 C.), greater than 500 mg/g. Moreover, the “TU Solubility” value was 405 mg/g in data set [2] (vehicle Oleic acid, at 37 C.); 261 mg/g in data set [2] (vehicle Omega-3 ethyl esters w/antioxidant (AMRI), at 37 C.); 360 mg/g in data set [2] (vehicle Omega-3 ethyl esters w/o antioxidant (AMRI), at 37 C.); 173 mg/g in data set [2] (vehicle Polyglyceryl-3-diisostearate (Plurol diisosterique), at 37 C.); 193 mg/g in data set [2] (vehicle Polyglyceryl-3-dioleate (Plurol oleique CC497), at 37 C.); 184 mg/g in data set [2] (vehicle Polyglyceryl-6-dioleate (Caprol MPGO, Abitec), at 37 C.). The “TU Solubility” value in data set [2] (vehicle Polysorbate 80 (Tween 80), determined at 25° C.) is given as 39* mg/g; in data set [2] (vehicle Polysorbate 85, at 37 C.) it was 125 mg/g; in data set [2] (vehicle Propylene glycol monocaprylate (Capryol 90, Gattefosse), at 37 C.), 486 mg/g; in data set [2] (vehicle Propylene glycol monolaurate, determined at 25° C.), >200* mg/g; in data set [2] (vehicle Rapeseed oil, at 37 C.) it was 123 mg/g; in data set [2] (vehicle Ricinoleic acid, at 37 C.), 244 mg/g. Further, the “TU Solubility” value in data set [2] (vehicle Safflower oil, at 37 C.) was 124 mg/g; in data set [2] (vehicle Span 80, at 37 C.) it was 289 mg/g; in data set [2] (vehicle Sunflower oil, at 37 C.), 105 mg/g; in data set [2] (vehicle Transcutol HP, at 37 C.), 180 mg/g; in data set [2] (vehicle dl-alpha-tocopherol, at 37 C.) it was 527 mg/g.
Take `C[C@]12CC[C@H]3[C@@H](CCC4=CC(=O)CC[C@@]43C)[C@@H]1CC[C@@H]2O` [micronized testosterone, testosterone]: in data set [3] (Daggett et al.), the “time at desired level of serum testosterone for each peak” value is reported as “about 4 hours”. For the same molecule, the “time of total serum testosterone within the normal range” value in data set [3] (Føgh et al.) is “greater than 12 hours”.
